Data as given in US11021481B2, “Substituted isoindolin-1-ones and 2,3-dihydro-1h-pyrrolo[3,4-c]pyridin-1-ones as HPK1 antagonists” (Nimbus Saturn, Inc., priority 2019, dated 2021).

These compounds were tested against HPK1 (Homo sapiens (Human), UniProt Q92918) (assay: HPK1 biochemical enzyme assay (microfluidic mobility shift assay)). Details: 1.5 nM HPK1, ATP 1 mM final, 30 min preincubation, 60 min at RT, Caliper EZ Reader; read-out: HPK1 1000UMATP caliper IC50.
How it was run: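 Ten-point compound titrations (top 3 μM final) preincubated 30 min with HPK1 and substrate, then reaction started with 1 mM ATP and 1 μM substrate, 5 mM MgCl2. After 60 min at RT, reaction terminated and product measured by microfluidic mobility shift.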

Chain of HPK1 (Q92918 whole entry): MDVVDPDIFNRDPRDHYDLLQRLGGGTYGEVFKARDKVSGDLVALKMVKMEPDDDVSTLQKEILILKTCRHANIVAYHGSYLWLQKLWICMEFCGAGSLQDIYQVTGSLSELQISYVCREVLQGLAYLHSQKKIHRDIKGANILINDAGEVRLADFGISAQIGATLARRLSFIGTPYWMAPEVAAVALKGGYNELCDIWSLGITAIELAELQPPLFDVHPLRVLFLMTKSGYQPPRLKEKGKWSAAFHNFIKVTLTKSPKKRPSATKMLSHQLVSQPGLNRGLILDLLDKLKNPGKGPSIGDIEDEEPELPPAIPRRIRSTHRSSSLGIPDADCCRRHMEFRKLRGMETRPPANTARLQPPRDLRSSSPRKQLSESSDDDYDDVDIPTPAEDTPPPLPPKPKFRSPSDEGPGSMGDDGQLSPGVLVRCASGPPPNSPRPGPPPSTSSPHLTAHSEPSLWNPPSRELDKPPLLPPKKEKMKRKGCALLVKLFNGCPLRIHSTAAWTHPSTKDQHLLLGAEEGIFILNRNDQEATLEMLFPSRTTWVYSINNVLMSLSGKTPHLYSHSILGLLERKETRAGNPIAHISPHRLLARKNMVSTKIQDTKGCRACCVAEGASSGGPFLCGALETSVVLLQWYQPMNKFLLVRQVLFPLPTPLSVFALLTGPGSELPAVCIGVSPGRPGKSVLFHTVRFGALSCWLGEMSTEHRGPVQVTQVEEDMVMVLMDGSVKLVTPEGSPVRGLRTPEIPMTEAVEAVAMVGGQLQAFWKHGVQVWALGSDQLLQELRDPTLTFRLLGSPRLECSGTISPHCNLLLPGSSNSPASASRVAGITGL

Structure (SMILES)	IC50 [nM]
O=C1NCc2c(-c3cnc4cc(F)ccn34)ccc(Nc3cccc(N4CCCC4=O)n3)c21 [I-340, 4-(7-fluoroimidazo [1,2-a]pyridin-3-yl)-7-((6-(2-oxopyrrolidin-1-yl)pyridin-2-yl)amino)isoin-dolin-1-one]	> 1000
Cn1ccc2c(-c3ncc(Nc4ccc(N5CCC(O)(CN6CCOCC6)CC5)cn4)c4c3CNC4=O)ccnc21 [I-343, 7-((5-(4-hydroxy-4-(morpholinomethyl)piperidin-1-yl)pyridin-2-yl)amino)-4-(1-methyl-1H-pyrrolo[2,3-b]pyridin-4-yl)-2,3-dihydro-1H-pyrrolo[3,4-c]pyridin-1-one]	< 100
CC(C)(O)[C@@H]1CN(c2ccc(Nc3ccc(-c4cnc5cc(F)ccn45)c4c3C(=O)NC4)nc2)CCO1 [I-344]	< 100
CC(C)(O)[C@H]1CN(c2ccc(Nc3ccc(-c4cnc5cc(F)ccn45)c4c3C(=O)NC4)nc2)CCO1 [I-345, (R)-4-(7-fluoroimidazo[1,2-a]pyridin-3-yl)-7-((5-(2-(2-hydroxypropan-2-yl)morpholino)pyridin-2-yl)amino)isoindolin-1-one]	< 100
O=C1NCc2c(-c3cnc4cc(F)ccn34)ccc(Nc3ccc(N4CC[C@H](F)[C@@H](O)C4)cn3)c21 [I-346, 7-((5-((3S.4S)-4-fluoro-3-hydroxypiperidin-1-yl)pyridin-2-yl)amino)-4-(7-fluoroimidazo [1,2-a]pyridin-3-yl)isoindolin-1-one]	< 100
O=C1NCc2c(-c3cnc4cc(F)ccn34)ccc(Nc3ccc(N4CC[C@@H](F)[C@H](O)C4)cn3)c21 [I-347, 7-((5-((3R,4R)-4-fluoro-3-hydroxy-piperidin-1-yl)pyridin-2-yl)amino)-4-(7-fluoroimidazo [1,2-a]pyridin-3-yl)isoindolin-1-one]	< 100
O=C1NCc2c(-c3cnc4cc(F)ccn34)ccc(Nc3ccc(N4CCC(O)(CN5CCOCC5)CC4)cn3)c21 [I-348, 4-(7-fluoroimidazo [1,2-a]pyridin-3-yl)-7-((5-(4-hydroxy-4-(morpholino-methyl)piperidin-1-yl)pyridin-2-yl)amino)isoin-dolin-1-one]	< 100
C[C@H]1C[C@@H](O)CCN1c1ccc(Nc2ccc(-c3cnc4cnccn34)c3c2C(=O)NC3)nc1 [I-349, 7-((5-((2S,4S)-4-hydroxy-2-methylpiperidin-1-yl)pyridin-2-yl)amino)-4-(imidazo[1,2-a]pyrazin-3-yl)isoindolin-1-one]	< 100
C[C@@H]1C[C@H](O)CCN1c1ccc(Nc2ccc(-c3cnc4cnccn34)c3c2C(=O)NC3)nc1 [I-350, 7-((5-((2R,4R]-4-hydroxy-2-methylpiperidin-1-yl)pyridin-2-yl)amino)-4-(imidazo[1,2-a]pyrazin-3-yl)isoindolin-1-one]	< 100
C[C@@H]1C[C@@H](O)CCN1c1ccc(Nc2ccc(-c3cnc4cnccn34)c3c2C(=O)NC3)nc1 [I-351, 7-((5-((2R,4S)-4-hydroxy-2-methylpiperidin-1-yl)pyridin-2-yl)amino)-4-(imidazo[1,2-a]pyrazin-3-yl)isoindolin-1-one]	< 100
C[C@H]1C[C@H](O)CCN1c1ccc(Nc2ccc(-c3cnc4cnccn34)c3c2C(=O)NC3)nc1 [I-352, 7-((5-((2S,4R)-4-hydroxy-2-methylpiperidin-1-yl)pyridin-2-yl)amino)-4-(imidazo[1,2-a]pyrazin-3-yl)isoindolin-1-one]	< 100
CC(C)(O)[C@H]1CCCN(c2ccc(Nc3cnc(-c4cnn5c4CCCC5)c4c3C(=O)NC4)nc2)C1 [I-355, (S)-7-((5-(3-(2-hydroxy-propan-2-yl)piperidin-1-yl)pyridin-2-yl)amino)-4-(4,5,6,7-tetrahydropyra-zolo[1,5-a]pyridin-3-yl)-2,3-dihydro-1H-pyrrolo[3,4-c]pyridin-1-one]	< 100
O=C1NCc2c(-c3cnc4cnccn34)ccc(Nc3ccc(N4CCOC(CO)C4)cn3)c21 (centres unmarked) [I-358, 7-((5-(2-(hydroxymeth-yl)morpholino)-pyridin-2-yl)amino)-4-(imidazo[1,2-a]pyrazin-3-yl)isoindolin-1-one]	< 100
O=C1NCc2c(-c3cnc4cc(F)ccn34)ccc(Nc3ccc(N4CC[C@H](F)[C@H](O)C4)cn3)c21 [I-359, 7-((5-((3R,4S)-4-fluoro-3-hydroxy-piperidin-1-yl)pyridin-2-yl)amino)-4-(7-fluoroimidazo [1,2-a]pyridin-3-yl)isoindolin-1-one]	< 100
Cc1csc2c(-c3ccc(Nc4ccc(N5CCC(O)CC5)cn4)c4c3CNC4=O)ccnc12 [I-361, 7-((5-(4-hydroxypip-eridin-1-yl)pyridin-2-yl)amino)-4-(3-methylthieno [3,2-b]pyridin-7-yl)isoindolin-1-one]	< 100
Cn1ccc2c(-c3ccc(Nc4ccc(N5CCC(O)CC5)cn4)c4c3CNC4=O)cnc-2c1 [I-362, 7-((5-(4-hydroxy-piperidin-1-yl)pyridin-2-yl)amino)-4-(6-methyl-6H-pyrrolo[2,3-c]pyridin-3-yl)isoindolin-1-one]	< 100

Structure (SMILES)	IC50 [nM]
CN1CCN(CC2(O)CCN(c3ccc(Nc4ccc(-c5cnc6cc(F)ccn56)c5c4C(=O)NC5)nc3)CC2)CC1 [I-365, 4-(7-fluoroimidazo [1,2-a]pyridin-3-yl)-7-((5-(4-hydroxy-4-((4-methylpiperazin-1-yl)methyl)pip-eridin-1-yl)pyridin-2-yl)amino)isoin-dolin-1-one]	< 100
CN(C)CC1(O)CCN(c2ccc(Nc3ccc(-c4cnc5cc(F)ccn45)c4c3C(=O)NC4)nc2)CC1 [I-366, 7-((5-(4-((dimethylamino)-methyl)-4-hydroxypiperidin-1-yl)pyridin-2-yl)amino)-4-(7-fluoroimidazo [1,2-a]pyridin-3-yl)isoindolin-1-one]	< 100
O=C1NCc2c(-c3cnn4c3CCCC4)ncc(Nc3ccc(N4CCOCC4)cn3)c21 [I-367, 7-((5-morpholinopyridin-2-yl)amino)-4-(4,5,6,7-tetrahdropyra-zolo[1,5-a]pyridin-3-yl)-2,3-dihydro-1H-pyrrolo[3,4-c]pyridin-1-one]	< 100
O=C1NCc2c(-c3cccc4ccnn34)ncc(Nc3ccc(N4CCC(O)CC4)cn3)c21 [I-368, 7-((5-(4-hydroxypiperidin-1-yl)pyridin-2-yl)amino)-4-(pyrazolo[1,5-a]pyridin-7-yl)-2,3-dihydro-1H-pyrrolo[3,4-c]pyridin-1-one]	> 1000
O=C1NCc2c(-c3ccc4cnccn34)ccc(Nc3ccc(N4CCC(O)CC4)cn3)c21 [I-369, 7-((5-(4-hydroxypiper-idin-1-yl)pyridin-2-yl)amino)-4-(pyrrolo[1,2-a]pyrazin-6-yl)isoindolin-1-one]	< 100
O=C1NCc2c(-c3cccn4nccc34)ncc(Nc3ccc(N4CCC(O)CC4)cn3)c21 [I-370, 7-((5-(4-hydroxy-piperidin-1-yl)pyridin-2-yl)amino)-4-(pyrazolo[1,5-a]pyridin-4-yl)-2,3-dihydro-1H-pyrrolo[3,4-c]pyridin-1-one]	100 to 1000
O=C1NCc2c(-c3cnc4cc(F)ccn34)ccc(Nc3ccc(C4(O)CCOCC4)cn3)c21 [I-371, 4-(7-fluoroimidazo [1,2-a]pyridin-3-yl)-7-((5-(4-hydroxtetra-hydro-2H-pyran-4-yl)pyridin-2-yl)amino)isoin-dolin-1-one]	< 100
COc1cc(Nc2ccc(-c3cnc4cc(F)ccn34)c3c2C(=O)NC3)ncc1N1CCC(O)CC1 [I-372, 4-(7-fluoroimidazo [1,2-a]pyridin-3-yl)-7-((5-(4-hydroxypipendin-1-yl)-4-methoxypyridin-2-yl)amino)isoin-dolin-1-one]	< 100
Cc1csc2c(-c3ncc(Nc4ccc(N5CCC(O)CC5)cn4)c4c3CNC4=O)ccnc12 [I-373, 7-((5-(4-hydroxypiperidin-1-yl)pyridin-2-yl)amino)-4-(3-methylthieno [3,2-b]pyridin-7-yl)-2,3-dihydro-1H-pyrrolo[3,4-c]pyridin-1-one]	< 100
Cn1cc(-c2ccc(Nc3ccc(N4CCC(O)CC4)cn3)c3c2CNC3=O)c2ccnnc21 [I-374, 7-((5-(4-hydroxy-piperidin-1-yl)pyridin-2-yl)amino)-4-(7-methyl-7H-pyrrolo[2,3-c]pyridazin-5-yl)isoindolin-1-one]	< 100
Cn1nccc2c(-c3ccc(Nc4ccc(N5CCC(O)CC5)cn4)c4c3CNC4=O)cnc1-2 [I-375, 7-((5-(4-hydroxy-piperidin-1-yl)pyridin-2-yl)amino)-4-(1-methyl-1H-pyrrolo[2,3-c]pyridazin-5-yl)isoindolin-1-one]	> 1000
O=C1NCc2c(-c3cncc4nccn34)ncc(Nc3ccc(N4CCC(O)CC4)cn3)c21 [I-376, 7-((5-(4-hydroxypiperidin-1-yl)pyridin-2-yl)amino)-4-(imidazo[1,2-a]pyrazin-5-yl)-2,3-dihydro-1H-pyrrolo[3,4-c]pyridin-1-one]	100 to 1000
O=C1NCc2c(-c3cnc4cc(F)ccn34)ccc(Nc3ccc(S(=O)(=O)CC4COC4)cn3)c21 [I-377, 4-(7-fluoroimidazo [1,2-a]pyridin-3-yl)-7-((5-((oxctan-3-ylmethyl)sulf-onyl)pyridin-2-yl)amino)isoin-dolin-1-one]	100 to 1000
O=C1NCc2c(-c3cnc4cc(CN5CC(F)C5)ccn34)ccc(Nc3ccc(N4CCC(O)CC4)cn3)c21 [I-378, 4-(7-((3-fluoroazetidin-1-yl)methyl)imidazo[1,2-a]pyridin-3-yl)-7-((5-(4-hydroxy-piperidin-1-yl)pyridin-2-yl)amino)isoin-dolin-1-one]	100 to 1000
O=C1NCc2c(-c3cnc4cc(F)ccn34)ccc(Nc3cnn(C4CCOCC4)c3)c21 [I-379, 4-(7-fluoroimidazo [1,2-a]pyridin-3-yl)-7-((1-(tetrahydro-2H-pyran-4-yl)-1H-pyrazol-4-yl)amino)isoin-dolin-1-one]	100 to 1000
CN(C)Cc1ccn2c(-c3ccc(Nc4ccc(N5CCC(O)CC5)cn4)c4c3CNC4=O)cnc2c1 [I-380, 4-(7-((dimethylamino)-methyl)imi-dazo[1,2-a]pyridin-3-yl)-7-((5-(4-hydroxy-piperidin-1-yl)pyridin-2-yl)amino)isoin-dolin-1-one]	100 to 1000
